From US20260174860A1, “HYBRID COMPOUNDS OF SCLAREOL AND DOXORUBICIN, THEIR SYNTHESIS AND APPLICATION” (INSTITUTE FOR BIOLOGICAL RESEARCH "SINISA STANKOVIC" - …, priority 2023, published 2026)

Key:
[1] = tested on: MRC-5 human lung fibroblast cell line; assay: MTT test of cell viability, 72 h treatment; type: cell-based
Protocol: (§1) The MTT test was used to evaluate the effect of the compounds on cell viability. The test relies on the reduction of tetrazolium salt (MTT) to formazan, which is catalyzed by the mitochondrial enzyme succinate dehydrogenase. The activity of succinate dehydrogenase, which is indicative of mitochondrial respiration, is taken as an indirect measure of the metabolic activity of the cell, and thus its viability. The MTT-formazan produced is a purple-colored product, whose absorbance is measured at a wavelength of 570 nm. • a) To determine the inhibition of cell growth by SC, different cell lines were exposed to increasing concentrations of SC (5, 10, 25, 50, and 100 μM). The cells were seeded in 96-well microtiter plates at a density of 2,000 cells per well for NCI-H460, NCI-H460/R, DLD1 and DLD1-TxR, and 4,000 cells per well for MRC-5, U87, U87-TxR, and U251 in 100 μL of the appropriate medium. Control cells that received no treatment were also seeded at the same time. After 24 h for adaptation, the cells were treated with various concentrations of SC. After 72 h of treatment, 0.2 mg/ml MTT was added to each well in the appropriate cell culture medium. After 4 h of incubation at 37° C. with 5% CO2, the medium was removed, and 100 μL of DMSO were added to each well, to dissolve the formazan. The absorbance of the samples was measured at 570 nm using a Multiskan Sky Microplate spectrophotometer (ThermoFisher Scientific, USA). The results were analyzed using GraphPad Prism 8.0.2. software, and the IC50 values were determined by non-linear regression. • b) To test the interaction between SC and DOX in terms of cytotoxicity in different cell lines, cells were seeded in 96-well microtiter plates at a density of 2,000 cells per well for NCI-H460, NCI-H460/R, DLD1 and DLD1-TxR, and 4,000 cells per well for MRC-5, U87, U87-TxR, and U251 in 100 μl of the appropriate medium. SC (10 and 20 μM) was combined with increasing concentrations of DOX (20, 50, 100, 200, and 500 nM). The cells were treated with the simultaneous combinations for 72 h. After this period, 0.2 mg/ml MTT was added to each well, followed by 4 hours of incubation at 37° C. with 5% CO2. The medium was then removed, and DMSO was added to each well to dissolve the formazan.
(§2) The absorbance of the samples was measured at 570 nm using a Multiskan Sky Microplate spectrophotometer.
(§3) The analysis was carried out using GraphPad Prism software version 8.0.2 to determine the nature of the interaction, namely synergistic, antagonistic, or additive, between compounds. This was done using the computer software CalcuSyn, which is based on the combination index method. The method takes into account the concentration of compounds, the individual effect of each compound, as well as the effect of two compounds in combination. The values of the combination indices (CI) describe the nature of the interaction: Cl<0.9 indicates synergism, Cl>1.1 indicates antagonism, and Cl=0.9-1.1 indicates an additive effect. • c) To compare the resistance and selectivity profiles among SC, DOX, CON1, and CON2, human glioblastoma cell lines U87, U87-TxR, and MRC-5 were seeded at a density of 4,000 cells per well in 100 μL of the appropriate medium. In contrast, NCI-H460, NCI-H460/R, and MRC-5 were seeded at a density of 2,000 cells per well in 100 μL of the proper medium. The effect of SC derivatives LIG1 and LIG2 was also examined. The range of concentrations differed among the cell lines and the compounds. For LIG1 and LIG2, the range of concentrations for all cell lines was 50, 100, 200, 300, and 400 μM, while the same range was used for the MRC-5 in the case of SC, CON1, and CON2. DOX concentrations ranged 0.1, 0.25, 0.5, 1, and 2.5 μM for U87 and NCI-H460, and 0.25, 0.5, 1, 2.5, and 5 μM for U87-TxR, NCI-H460/R, and MRC-5. Five concentrations used for SC, CON1, and CON2 treatments varied in the range 1, 2.5, 5, 10, 25, 50, and 100 μM. The treatment lasted 72 h. […]

[2] = tested on: NCI-H460/R resistant human non-small cell lung carcinoma cell line; assay: MTT test of cell viability, 72 h treatment; type: cell-based; conditions: for IC50: MTT, 72 h, MDR line; for Relative Resistance: ratio IC50 NCI-H460/R / IC50 NCI-H460
Protocol: as §1, §2, §3

[3] = tested on: U87-TxR resistant human glioblastoma cell line; assay: MTT test of cell viability, 72 h treatment; type: cell-based; conditions: for IC50: MTT, 72 h, MDR line; for Relative Resistance: ratio IC50 U87-TxR / IC50 U87
Protocol: as §1, §2, §3

[4] = tested on: U87 human glioblastoma cell line; assay: MTT test of cell viability, 72 h treatment; type: cell-based; conditions: for IC50: MTT, 72 h; for Selectivity Index: ratio IC50 MRC-5 (4,000 cells per well) / IC50 U87
Protocol: as §1
as §3, with “h. After the treatment period, 0.2 mg/ml MTT in the appropriate cell culture medium was added to each well.” for “h.”

[5] = tested on: NCI-H460 human non-small cell lung carcinoma cell line; assay: MTT test of cell viability, 72 h treatment; type: cell-based; conditions: for IC50: MTT, 72 h; for Selectivity Index: ratio IC50 MRC-5 (2,000 cells per well) / IC50 NCI-H460
Protocol: as §1
as §3, with “h. After the treatment period, 0.2 mg/ml MTT in the appropriate cell culture medium was added to each well.” for “h.”

[6] = Zetasizer measurement of size, polydispersity and zeta potential; type: physicochemical; conditions: 25° C., diluted 100 times with ultrapure water, mean of three
Protocol: The Malvern Zetasizer Nano ZS (Malvern Instruments, United Kingdom) was used to analyze the physico-chemical stability characteristics of conjugates. The measurement range was from 0.6 nm up to […]. The mean size of conjugates, the polydispersity index (PDI) and zeta potential were measured. All measurements were taken at a temperature of 25° C. and each sample was diluted 100 times with ultrapure water. The measurements were repeated three times, and the results were presented as the mean value. PDI is a parameter used to define the size range of particles. The term “polydispersity” (or “dispersity” as recommended by IUPAC) describes the degree of non-uniformity of a size distribution of particles. Zeta potential represents the surface charge of nanoparticles and indicates their long-term stability.

[7] = Homo sapiens, MRC5, 72 h, 2,000 cells per well (non-small cell carcinoma experiments)
[8] = Homo sapiens, MRC5, 72 h, 4,000 cells per well (glioblastoma experiments)

Compound | IC50 [1, 7] [µM] | IC50 [1, 8] [µM] | IC50 ([2]; Homo sapiens, NCI-H460) [µM] | Relative Resistance [2] | IC50 ([3]; Homo sapiens, U87-TxR) [µM] | Relative Resistance [3] | IC50 ([4]; Homo sapiens) [µM] | Selectivity Index [4] | IC50 ([5]; Homo sapiens, NCI-H460) [µM] | Selectivity Index [5] | IC50 ([1]; 2,000 cells per well (non-small cell carcinoma experiments)) [µM] | IC50 ([1]; 4,000 cells per well (glioblastoma experiments)) [µM] | IC50 [2] [µM] | IC50 [3] [µM] | Z-Average [6] [nm·days] | IC50 [4] [µM] | IC50 [5] [µM]
CC1(C)CCC[C@]2(C)[C@@H](CC[C@@](C)(O)/C=C/c3ccc(CNCCCNC(=O)CCC(=O)O)cc3)[C@](C)(O)CC[C@@H]12 [LIG1, 4-((3-((4-((R,E)-3-hydroxy-5-((1R,2R,4aS,8aS)-2-hydroxy-2,5,5,8a-tetramethyldecahydronaphthalen-1-yl)-3-methylpent-1-en-1-yl)benzyl)amino)propyl)amino)-4-oxobutanoic acid] | 393 | 236 | 55.2 | 1.3 | 61.7 | 0.8 | 74.4 | 3.2 | 41.7 | 9.4 |  |  |  |  |  |  | 
CC1(C)CCC[C@]2(C)[C@@H](CC[C@@](C)(O)/C=C/c3ccc(CNCCCCCCNC(=O)CCC(=O)O)cc3)[C@](C)(O)CC[C@@H]12 [LIG2, 4-((6-((4-((R,E)-3-hydroxy-5-((1R,2R,4aS,8aS)-2-hydroxy-2,5,5,8a-tetramethyldecahydronaphthalen-1-yl)-3-methylpent-1-en-1-yl)benzyl)amino)hexyl)amino)-4-oxobutanoic acid] | 610 | > 400 | 110 | 1.1 | 273 | 0.8 | 345 | >1.2 | 99.6 | 6.1 |  |  |  |  |  |  | 
N1-((2S,3S,4S,6R)-3-hydroxy-2-methyl-6-(((1S,3S)-3,5,12-trihydroxy-3-(2-hydroxyacetyl)-10-methoxy-6,11-dioxo-1,2,3,4,6,11-hexahydrotetracen-1-yl)oxy)tetrahydro-2H-pyran-4-yl)-N4-(6-((4-((R,E)-3-hydroxy-5-((1R,2R,4aS,8aS)-2-hydroxy-2,5,5,8a-tetramethyldecahydronaphthalen-1-yl)-3-methylpent-1-en-1-yl)benzyl)amino)hexyl) succinamide [CON2] |  |  |  | 3.3 |  | 4.2 |  | >64.5 |  | 5.2 | 131 | > 400 | 83.3 | 26.2 | 180 ± 14.7 | 6.2 | 25.1
